Measurements: BindingDB's records for doi:10.1007/BF00173012 (Sandoz Pharma, 1994)
pKi: −log10 of the molar value. *1 amine or outer side, *2 acyl side, *3 side chain or, on linkers, in order; H or OH if unused. Where a SMILES comes first, the peptide text is derived from it. Bridges are numbered along the chain shown (N, C = ends). [ ]: non-standard residue; d: D form. The star is where a group is joined. ξ: configuration not given here. X3 = C[C@@H](C(=O)[*:2])N(Cc1ccc2ccccc2c1)[*:1]; Phe(4-Cl) = N[C@@H](Cc1ccc(Cl)cc1)C(=O)O; d2Nal = N[C@H](Cc1ccc2ccccc2c1)C(=O)O; dThr(3ξ) = CC(O)[C@@H](N)C(=O)O; NMeA = CN[C@@H](C)C(=O)O; ξF = NC(Cc1ccccc1)C(=O)O; Abu = CC[C@H](N)C(=O)O; X2 = CC(O)[C@H](CO)N*; Ahp = NCCCCCCC(=O)O; Bn = c1ccc(C*)cc1; ξC = NC(CS)C(=O)O

target: T1, Somatostatin receptor type 5 (Rattus norvegicus, UniProt P30938)
T1 sequence (P30938 whole entry): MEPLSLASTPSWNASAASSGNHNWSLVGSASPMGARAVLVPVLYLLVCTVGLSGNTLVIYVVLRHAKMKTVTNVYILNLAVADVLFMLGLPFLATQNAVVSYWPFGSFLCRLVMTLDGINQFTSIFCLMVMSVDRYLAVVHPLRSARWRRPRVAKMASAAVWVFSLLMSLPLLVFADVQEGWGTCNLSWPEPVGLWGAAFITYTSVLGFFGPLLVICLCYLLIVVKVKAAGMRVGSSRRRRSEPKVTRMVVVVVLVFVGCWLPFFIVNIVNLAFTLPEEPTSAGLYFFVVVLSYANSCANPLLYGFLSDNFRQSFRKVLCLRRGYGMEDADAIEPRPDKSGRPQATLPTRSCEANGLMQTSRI

Row | SMILES | pKi
1 | CC(O)[C@H](CO)NC(=O)[C@@H]1CSSCC(NC(=O)C(N)Cc2ccccc2)C(=O)N[C@H](Cc2ccccc2)C(=O)N[C@H](Cc2c[nH]c3ccccc23)C(=O)N[C@H](CCCCN)C(=O)N[C@H](C(C)O)C(=O)N1 (some centres undefined) (H-[ξF][ξC][dF][dW][dK][dThr(3ξ)]C-X2; disulfide 2-7) | 9.24
2 | C[C@@H](O)[C@@H]1NC(=O)[C@H](CCCCN)NC(=O)[C@@H](Cc2c[nH]c3ccccc23)NC(=O)[C@H](Cc2ccccc2)NC(=O)[C@@H]2CCCN2C(=O)[C@H](Cc2ccccc2)NC1=O (cyclo(PF[dW]KTF)) | 8.49
3 | CC(C)[C@@H]1NC(=O)[C@H](CCCCN)NC(=O)[C@@H](Cc2c[nH]c3ccccc23)NC(=O)[C@H](Cc2ccc(O)cc2)NC(=O)[C@@H](NC(=O)[C@H](N)Cc2ccc3ccccc3c2)CSSC[C@@H](C(=O)N[C@H](C(N)=O)[C@@H](C)O)NC1=O [3-(2-Naphtyl)-D-Ala-L-Cys(1)-L-Tyr-D-Trp-L-Lys-L-Val-L-Cys(1)-L-Thr-NH2] | 10.00
4 | CC[C@@H]1NC(=O)[C@H](CCCCN)NC(=O)[C@@H](Cc2c[nH]c3ccccc23)NC(=O)[C@H](Cc2ccc(O)cc2)NC(=O)[C@H](C)N(C)C(=O)[C@H](Cc2ccccc2)NC1=O [BIM-23027] (cyclo([Abu]F[NMeA]Y[dW]K)) | 8.21
5 | CC(C)[C@H](NC(=O)[C@H](CCCCN)NC(=O)[C@@H](Cc1c[nH]c2ccccc12)NC(=O)[C@H](Cc1ccc(O)cc1)NC(=O)[C@H](Cc1ccccc1)NC(=O)[C@@H](N)Cc1ccccc1)C(=O)N[C@@H](Cc1ccccc1)C(=O)N[C@H](C(N)=O)[C@@H](C)O [BIM-23058] (H-FFY[dW]KVFT-NH2) | 8.92
6 | CC(C)C1NC(=O)C(CCCCN)NC(=O)C(Cc2c[nH]c3ccccc23)NC(=O)C(Cc2ccc(O)cc2)NC(=O)C(NC(=O)C(N)Cc2ccccc2)CSSCC(C(=O)NC(Cc2c[nH]c3ccccc23)C(N)=O)NC1=O (centres undefined) [CAS_71306] (H-FCYWKVCW-NH2; disulfide 2-7; configuration not given here) | 8.80
7 | CC(C)C1NC(=O)C(CCCCN)NC(=O)C(Cc2c[nH]c3ccccc23)NC(=O)C(Cc2ccc(O)cc2)NC(=O)C(C)N(C)C(=O)C(Cc2ccccc2)NC1=O (centres undefined) [CAS_3086456] | 8.26
8 | C[C@H](O)[C@@H]1NC(=O)C(CCCCN)NC(=O)[C@@H](Cc2c[nH]c3ccccc23)NC(=O)C(Cc2ccccc2)NC(=O)C(Cc2ccccc2)NC(=O)C(CC(N)=O)NC(=O)C(CCCCN)NC(=O)CCCCC[C@H](C(=O)O)NC(=O)[C@@H](CO)NC(=O)[C@H]([C@H](C)O)NC(=O)[C@@H](Cc2ccc(O)cc2)NC1=O (some centres undefined) [CGP-23996] | 8.33
9 | CC(C)[C@H](NC(=O)[C@H](CCCCN)NC(=O)[C@@H](Cc1c[nH]c2ccccc12)NC(=O)[C@H](Cc1ccc(O)cc1)NC(=O)[C@H](C)NCc1ccc2ccccc2c1)C(=O)N[C@@H](C)C(=O)N[C@H](C(N)=O)[C@@H](C)O [D-Nal-Ala-Tyr-D-Trp-Lys-Val-Ala-Thr-NH2] (H-[X3]Y[dW]KVAT-NH2) | 6.84
10 | CC(CO)C(NC(=O)C1NC(=O)N[C@@H](Cc2ccc(O)cc2)C(=O)N[C@H](Cc2c[nH]c3ccccc23)C(=O)N[C@@H](CCCCN)C(=O)N[C@@H](C(C)CO)C(=O)NC(C(=O)N[C@@H](Cc2ccc3ccccc3c2)C(N)=O)SS1)C(N)=O (stereo partly drawn) [D-Nal-c[Cys-Tyr-D-Trp-Lys-Thr-Cys]-Thr-NH2] | 10.15
11 | CC(C)[C@H](NC(=O)[C@H](CCCCN)NC(=O)[C@@H](Cc1c[nH]c2ccccc12)NC(=O)[C@H](Cc1ccc(O)cc1)NC(=O)[C@H](C)NC(=O)[C@H](N)Cc1ccccc1)C(=O)N[C@@H](C)C(=O)N[C@H](Cc1ccc2ccccc2c1)C(N)=O [D-Phe-AIa-Tyr-D-Trp-Lys-Val-Ala-D-Nal-NH2] (H-[dF]AY[dW]KVA[d2Nal]-NH2) | 8.23
12 | CC[C@@H]1NC(=O)[C@H](CCCCN)NC(=O)[C@@H](Cc2c[nH]c3ccccc23)NC(=O)[C@H](Cc2ccc(O)cc2)NC(=O)[C@@H](NC(=O)[C@H](N)Cc2ccccc2)CSSC[C@@H](C(=O)N[C@H](C(N)=O)[C@@H](C)O)NC1=O [D-Phe-L-Cys(1)-L-Tyr-D-Trp-L-Lys-L-Abu-L-Cys(1)-L-Thr-NH2] | 9.74
13 | CC(C)[C@H](NC(=O)[C@H](CCCCN)NC(=O)[C@@H](Cc1c[nH]c2ccccc12)NC(=O)[C@H](Cc1ccc(O)cc1)NC(=O)[C@H](Cc1ccccc1)NC(=O)[C@H](N)Cc1ccccc1)C(=O)N[C@@H](Cc1ccccc1)C(=O)N[C@H](Cc1ccccc1)C(N)=O [D-Phe-Phe-Tyr-D-Trp-Lys-Val-Phe-D-Phe-NH2] (H-[dF]FY[dW]KVF[dF]-NH2) | 8.48
14 | C[C@@H](O)[C@@H]1NC(=O)[C@H](CCCCN)NC(=O)[C@@H](Cc2c[nH]c3ccccc23)NC(=O)[C@H](Cc2ccccc2)NC(=O)[C@H](Cc2ccc(Cl)cc2)NC(=O)CCCCCCNC(=O)[C@H](Cc2ccccc2)NC1=O [L-362862] (cyclo([Ahp][Phe(4-Cl)]F[dW]KTF)) | 9.34
15 | C[C@@H](Oc1ccccc1)[C@@H]1NC(=O)[C@H](CCCCN)NC(=O)[C@@H](Cc2c[nH]c3ccccc23)NC(=O)[C@H](Cc2ccccc2)NCCCCCCNC1=O [c[Aha-Phe-D-Trp-Lys-Thr(Bzl)]] | 7.29

target: Somatostatin receptor type 4 (Mus musculus, UniProt P49660)
Sequence (P49660 whole entry): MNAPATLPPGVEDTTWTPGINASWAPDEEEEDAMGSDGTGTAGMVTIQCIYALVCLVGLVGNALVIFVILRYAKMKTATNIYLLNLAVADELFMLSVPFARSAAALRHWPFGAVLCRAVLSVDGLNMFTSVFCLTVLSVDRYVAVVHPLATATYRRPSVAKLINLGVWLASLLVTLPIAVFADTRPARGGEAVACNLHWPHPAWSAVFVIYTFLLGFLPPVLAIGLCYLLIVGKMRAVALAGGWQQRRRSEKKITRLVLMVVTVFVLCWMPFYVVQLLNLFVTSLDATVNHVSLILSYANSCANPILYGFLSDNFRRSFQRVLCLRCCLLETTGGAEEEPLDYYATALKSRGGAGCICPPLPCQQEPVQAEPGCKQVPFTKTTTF

Row | SMILES | pKi
16 | C[C@@H](O)[C@@H]1NC(=O)[C@H](CCCCN)NC(=O)[C@@H](Cc2c[nH]c3ccccc23)NC(=O)[C@H](Cc2ccccc2)NC(=O)[C@@H]2CCCN2C(=O)[C@H](Cc2ccccc2)NC1=O (cyclo(PF[dW]KTF)) | 6.00
17 | CC[C@@H]1NC(=O)[C@H](CCCCN)NC(=O)[C@@H](Cc2c[nH]c3ccccc23)NC(=O)[C@H](Cc2ccc(O)cc2)NC(=O)[C@H](C)N(C)C(=O)[C@H](Cc2ccccc2)NC1=O [BIM-23027] (cyclo([Abu]F[NMeA]Y[dW]K)) | 6.00
18 | CC(C)[C@@H]1NC(=O)[C@H](CCCCN)NC(=O)[C@@H](Cc2c[nH]c3ccccc23)NC(=O)[C@H](Cc2ccc(O)cc2)NC(=O)[C@H](C)N(C)C(=O)[C@H](Cc2ccccc2)NC1=O [CAS_3086456] | 6.00
19 | CC(C)[C@H](NC(=O)[C@H](CCCCN)NC(=O)[C@@H](Cc1c[nH]c2ccccc12)NC(=O)[C@H](Cc1ccc(O)cc1)NC(=O)[C@H](C)NC(=O)[C@H](N)Cc1ccc2ccccc2c1)C(=O)N[C@@H](C)C(=O)N[C@H](C(N)=O)[C@@H](C)O [D-Nal-Ala-Tyr-D-Trp-Lys-Val-Ala-Thr-NH2] (H-[d2Nal]AY[dW]KVAT-NH2) | 6.00
20 | CC(C)[C@H](NC(=O)[C@H](CCCCN)NC(=O)[C@@H](Cc1c[nH]c2ccccc12)NC(=O)[C@H](Cc1ccc(O)cc1)NC(=O)[C@H](C)NC(=O)[C@H](N)Cc1ccccc1)C(=O)N[C@@H](C)C(=O)N[C@H](Cc1ccc2ccccc2c1)C(N)=O [D-Phe-AIa-Tyr-D-Trp-Lys-Val-Ala-D-Nal-NH2] (H-[dF]AY[dW]KVA[d2Nal]-NH2) | 6.00
21 | CC(C)[C@H](NC(=O)[C@H](CCCCN)NC(=O)[C@@H](Cc1c[nH]c2ccccc12)NC(=O)[C@H](Cc1ccc(O)cc1)NC(=O)[C@H](Cc1ccccc1)NC(=O)[C@H](N)Cc1ccccc1)C(=O)N[C@@H](Cc1ccccc1)C(=O)N[C@H](Cc1ccccc1)C(N)=O [D-Phe-Phe-Tyr-D-Trp-Lys-Val-Phe-D-Phe-NH2] (H-[dF]FY[dW]KVF[dF]-NH2) | 6.60
22 | C[C@@H](O)[C@@H]1NC(=O)[C@H](CCCCN)NC(=O)[C@@H](Cc2c[nH]c3ccccc23)NC(=O)[C@H](Cc2ccc(Cl)cc2)NC(=O)[C@H](Cc2ccccc2)NC(=O)CCCCCCNC(=O)[C@H](Cc2ccccc2)NC1=O [L-362862] (cyclo([Ahp]F[Phe(4-Cl)][dW]KTF)) | 7.36
23 | CSCC[C@H](NC(=O)[C@H](C)NC(=O)[C@@H]1CCCN1C(=O)[C@H](CC(N)=O)NC(=O)[C@H](CO)NC(=O)[C@H](CC(N)=O)NC(=O)[C@H](C)NC(=O)[C@@H](N)CO)C(=O)N[C@@H](C)C(=O)N1CCC[C@H]1C(=O)N[C@@H](CCCNC(=N)N)C(=O)N[C@@H](CCC(=O)O)C(=O)N[C@@H](CCCNC(=N)N)C(=O)N[C@@H](CCCCN)C(=O)N[C@@H](C)C(=O)NCC(=O)N[C@H]1CSSC[C@@H](C(=O)O)NC(=O)[C@H](CO)NC(=O)[C@H]([C@@H](C)O)NC(=O)[C@H](Cc2ccccc2)NC(=O)[C@H]([C@@H](C)O)NC(=O)[C@H](CCCCN)NC(=O)[C@H](Cc2c[nH]c3ccccc23)NC(=O)[C@H](Cc2ccccc2)NC(=O)[C@H](Cc2ccccc2)NC(=O)[C@H](CC(N)=O)NC(=O)[C@H](CCCCN)NC1=O [L-Ser-L-Ala-L-Asn-L-Ser-L-Asn-L-Pro-L-Ala-L-Met-L-Ala-L-Pro-L-Arg-L-Glu-L-Arg-L-Lys-L-Ala-Gly-L-Cys(1)-L-Lys-L-Asn-L-Phe-L-Phe-L-Trp-L-Lys-L-Thr-L-Phe-L-Thr-L-Ser-L-Cys(1)-OH] | 9.55
24 | C[C@@H](OCc1ccccc1)[C@@H]1NC(=O)[C@H](CCCCN)NC(=O)[C@@H](Cc2c[nH]c3ccccc23)NC(=O)[C@H](Cc2ccccc2)NC(=O)CCCCCCNC1=O [c[Aha-Phe-D-Trp-Lys-Thr(Bzl)]] (cyclo([Ahp]F[dW]KT(Bn))) | 6.00
